# Data published in patent US6365314B1, “Toner for developing electrostatic image, image forming method and process cartridge” (Canon Kabushiki Kaisha, priority 1994, dated 2002).
# Experiment: Solubility measurement of charge control agent in methanol
# Assay type: physicochemical
# Conditions: stirred 1 hour at 50° C., cooled to room temperature, 0.1 μm-filter, absorbance vs 20 ppm standard
# Method: The solubility of the charge control agent may be measured in the following manner.
# <Solubility measurement of charge control agent>
# 2 g of a charge control agent is weighed and placed in a 300 ml Erlenmeyer flask to which 100 ml of methanol is added. The system is heated to 50° C. under stirring and the stirring is further continued for 1 hour (when all the charge control agent is dissolved, the charge control agent is further added successively at an increment of 2 g each under continued stirring). Then, the system is cooled to room temperature and the insoluble charge control agent is removed by a 0.1 μm-filter to measure the absorbance (A) of the solution at a maximum absorption wavelength by using a spectrophotometer.
# wherein I denotes a transmitted light intensity through a solution, I0 denotes a transmitted light intensity through a solvent (=methanol), ε0 denotes an absorption coefficient, C denotes the concentration of the charge control agent, and d denotes the thickness of the solution for the absorbance measurement.
SMILES,SMeOH (solubility in methanol),SMeOH (solubility in methanol) (listed as Azo-type iron complex (1))
O=C(Nc1ccccc1)c1cc2ccccc2c2c1[O][Fe]1([O]c3c(Cl)cc(Cl)cc3N=N2)[O]c2c(Cl)cc(Cl)cc2N=Nc2c(c(C(=O)Nc3ccccc3)cc3ccccc23)[O]1 (stereo not shown) [Complex (2)],SMeOH = 0.75 g/100 ml),
Cc1ccccc1NC(=O)c1cc2ccccc2c2c1[O][Fe]1([O]c3cc(Cl)c([N+](=O)[O-])cc3/N=N/2)[O]c2cc(Cl)c([N+](=O)[O-])cc2/N=N/c2c(c(C(=O)Nc3ccccc3C)cc3ccccc23)[O]1 [Complex (5)],SMeOH = 0.65 g/100 ml),
O=C(Nc1cccc([N+](=O)[O-])c1)c1cc2ccccc2c2c1[O][Fe]1([O]c3c(cc(Cl)cc3[N+](=O)[O-])/N=N/2)[O]c2c(cc(Cl)cc2[N+](=O)[O-])/N=N/c2c(c(C(=O)Nc3cccc([N+](=O)[O-])c3)cc3ccccc23)[O]1 [Complex (4)],SMeOH = 0.65 g/100 ml),
Cc1ccccc1NC(=O)c1cc2ccccc2c2c1[O][Fe]1([O]c3ccccc3N=N2)[O]c2ccccc2N=Nc2c(c(C(=O)Nc3ccccc3C)cc3ccccc23)[O]1 (stereo not shown) [Complex (6)],SMeOH = 0.76 g/100 ml),
O=C(Nc1cccc([N+](=O)[O-])c1)c1cc2ccccc2c2c1[O][Fe]1([O]c3ccc(Cl)cc3/N=N/2)[O]c2ccc(Cl)cc2/N=N/c2c(c(C(=O)Nc3cccc([N+](=O)[O-])c3)cc3ccccc23)[O]1 [Complex (3)],SMeOH = 0.71 g/100 ml),
O=C(Nc1ccccc1)c1cc2ccccc2c2c1[O][Fe]1([O]c3ccc(Cl)cc3N=N2)[O]c2ccc(Cl)cc2N=Nc2c(c(C(=O)Nc3ccccc3)cc3ccccc23)[O]1 (stereo not shown) [Complex (1)],SMeOH = 0.87 g/100 ml),0.87 g/100 ml)
